Laboratory results reported in patent US20190284286A1, “Modulation of Type I Interferons to Reactivate HIV-1 Reservoir and Enhance HIV-1 Treatment” (The University of North Carolina at Chapel Hill, priority 2016, published 2019).

Legend:
CD4 T cells = assay: Ex vivo culture of splenocytes from HIV-1 persistently infected humanized mice; type: cell-based; conditions: for number of live CD4 T cells (CD4 T cell depletion) / active caspase-3 / apoptosis of CD4 T cells: 10 days culture, Z-DEVD-FMK 10 μM; for number of live CD4 T cells (CD4 T cell depletion): Ac-YVAD-CMK 50 μM
Procedure: Mice were sacrificed at 10 wpi. […] At day 10, the cells were counted and used for analysis. (B) HIV-1 RNA levels in culture supernatant. (C-D) Representative dot plots (C) and summarized data (D) show percentages of CD4 T cells with active caspase-3. (E) Number of live CD4 T cells in each group. (F-I) Splenocytes from mock (n=2) or HIV-1 infected (n=4) humanized mice were cultured with IL-2 in vitro in the presence of DMSO or caspase-3 inhibitor Z-DEVD-FMK or caspase-1 inhibitor Ac-YVAD-CMK for 10 days. At day 10, the cells were counted and used for staining. (F-G) Representative dot plots (F) and summarized data (G) show percentages of active caspase-3^+ CD4 T cells. (H-I) Number of live CD4 T cells in each group. Data are one representative of 2 independent experiments with mean values±s.e.m.). *P<0.05, **P<0.01 by unpaired, two-tailed Student's t-test to compare differences between each two groups.
For surface staining, single cell suspensions prepared from peripheral blood, spleen, or mesenteric lymph nodes of humanized mice were stained with surface markers and analyzed on a CyAn ADP flow cytometer (Dako). For intracellular staining, cells were first stained with surface markers, and then fixed and permeabilized with cytofix/cytoperm buffer (BD Bioscience), followed by intracellular staining. PE-conjugated anti-human active caspase-3 (C92-605) was used to detect intracellular activation of caspase-3. Fluorescent labeled inhibitors of caspases-1 probe assay (FLICA 660 Caspase-1 Assay Kit, ImmunoChemistry Technologies) were performed to determine intracellular activation of caspases-1. Data were analyzed using Summit4.3 software (Dako).
Media were half-changed every 2-3 days. At day 10, the cells were counted and used for staining.

HIV-1 = conditions: long-term IFN-α during and after ART; cited from earlier work
[1] = α-IFNAR1 10 μg/ml, IFN-α 200 u/ml

| Compound | number of live CD4 T cells (CD4 T cell depletion) (CD4 T cells) | active caspase-3 / apoptosis of CD4 T cells (CD4 T cells; [1]) | patients with suppression of HIV-1 rebound (HIV-1) | HIV-1 replication (HIV-1 RNA in culture supernatant) (CD4 T cells; 10 days culture with IL-2, α-IFNAR1 10 μg/ml, IFN-α 200 u/ml) |
| --- | --- | --- | --- | --- |
| CC(=O)N[C@@H](Cc1ccc(O)cc1)C(=O)N[C@H](C(=O)N[C@@H](C)C(=O)N[C@@H](CC(=O)O)C(=O)CCl)C(C)C [Ac-YVAD-CMK, reference compound] | did not prevent CD4 T cell depletion |  |  |  |
| COC(=O)CC[C@H](NC(=O)[C@H](CC(=O)OC)NC(=O)OCc1ccccc1)C(=O)N[C@H](C(=O)N[C@@H](CC(=O)OC)C(=O)CF)C(C)C [Z-DEVD-FMK, reference compound] | rescued CD4 T cell number | reduced HIV-1 induced CD4 T cell apoptosis |  |  |
| IFN-α | accelerated CD4 T cell depletion | further increased the level of active caspase-3 | ~40% | inhibited HIV-1 replication |
